Results on 29 molecules are retold here after patent publication US9284333B2, “Fused pyrroledicarboxamides and their use as pharmaceuticals” (SANOFI, priority 2012, dated 2016).

Human TASK-1 channels, sequence (O14649 whole entry, the tested form may be a part): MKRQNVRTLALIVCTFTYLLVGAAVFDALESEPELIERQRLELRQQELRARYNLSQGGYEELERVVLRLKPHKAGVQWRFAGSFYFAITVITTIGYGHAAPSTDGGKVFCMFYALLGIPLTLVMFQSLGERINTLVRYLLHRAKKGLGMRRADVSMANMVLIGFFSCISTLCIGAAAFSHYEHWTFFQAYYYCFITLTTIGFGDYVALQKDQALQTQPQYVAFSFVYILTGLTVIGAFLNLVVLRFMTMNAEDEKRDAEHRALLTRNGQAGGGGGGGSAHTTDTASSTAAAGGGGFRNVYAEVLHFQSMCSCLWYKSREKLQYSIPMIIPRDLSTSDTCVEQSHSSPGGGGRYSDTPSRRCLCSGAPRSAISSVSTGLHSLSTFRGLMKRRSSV

One test deals with Human TASK-1 channels (Homo sapiens (Human), UniProt O14649). Kind of test: Determination of the activity on the TASK-1 channel in Xenopus oocytes (two-microelectrode voltage clamp). In kind it is cell-based. The following applies: compound concentration 5 μM. The procedure, abridged:
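Xenopus oocytes were injected with human TASK-1 cRNA and recorded two days later by two-microelectrode voltage clamp, holding at −90 mV with 500 ms steps to 40 mV. Superfusion used ND96, pH 7.4, at room temperature, with rising compound concentrations; percentage inhibition of control current was fitted to a dose-response curve for IC50.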
By inhibition is commonly meant the share of the control response that was lost under treatment. A higher inhibition goes with a response far below the control. Take `CC[C@@H](NC(=O)c1cc(C(=O)N[C@H](CC)c2nccs2)n2c1COCC2)c1ccc(C(F)(F)F)nc1` (racemic) [16pd, 3,4-Dihydro-1H-pyrrolo[2,1-c][1,4]oxazine-6,8-dicarboxylic acid 6-[((R)-1-thiazol-2-yl-propyl)-amide] 8-{[(R)-1-(6-trifluoromethyl-pyridin-3-yl)-propyl]-amide}]: 5 µM produced 82% inhibition.
Consider “3,4-Dihydro-1H-pyrrolo[2,1-c][1,4]oxazine-6,8-dicarboxylic acid 6-[(1H-indol-6-ylmethyl)-amide] 8-[((R)-1-phenyl-propyl)-amide] [16je]”, for which the “TASK-1 inhibition [%] at 5 μM” value is recorded as 91%.
For the molecule `CC[C@@H](NC(=O)c1cc(C(=O)NC(C)c2nnnn2CC)n2c1COCC2)c1ccccc1` (stereo partly drawn) [16rr, 3,4-Dihydro-1H-pyrrolo[2,1-c][1,4]oxazine-6,8-dicarboxylic acid 6-{[1-(1-ethyl-1H-tetrazol-5-yl)-ethyl]-amide} 8-[((R)-1-phenyl-propyl)-amide]], 5 µM produced 71% inhibition.
`CC[C@@H](NC(=O)c1cc(C(=O)N2CCC[C@H]2c2ccccc2)n2c1CCCC2)c1ccccc1` [16mn, 3-((S)-2-Phenyl-pyrrolidine-1-carbonyl)-5,6,7,8-tetrahydro-indolizine-1-carboxylic acid ((R)-1-phenyl-propyl)-amide]: 5 µM produced 92% inhibition.

Still in this test, the particulars now being: human TASK-1 expressed in Xenopus oocytes, room temperature; read-out: IC50 value for TASK-1 inhibition.
What is called IC50 is the concentration that inhibits the measured activity by half. For the molecule `CC[C@@H](NC(=O)c1cc(C(=O)N(C)Cc2ccc(F)cc2)n2c1CCCC2)c1ccccc1` [16mu, 5,6,7,8-Tetrahydro-indolizine-1,3-dicarboxylic acid 3-[(4-fluoro-benzyl)-methyl-amide] 1-[((R)-1-phenyl-propyl)-amide]], the IC50 was found to be 0.075 µM.
For `COC(=O)[C@H]1CCCN1C(=O)c1cc(C(=O)N[C@@H](c2ccc(F)cc2)C(C)C)n2c1COCC2` [16ln, (R)-1-{6-[(R)-1-(4-Fluoro-phenyl)-2-methyl-propylcarbamoyl]-3,4-dihydro-1H-pyrrolo[2,1-c][1,4]oxazine-8-carbonyl}-pyrrolidine-2-carboxylic acid methyl ester], the IC50 was determined as 0.14 µM.
With `CC[C@@H](NC(=O)c1cc(C(=O)N[C@H](CC)c2ccc(C(F)(F)F)nc2)n2c1COCC2)c1ccccc1` [16id, 3,4-Dihydro-1H-pyrrolo[2,1-c][1,4]oxazine-6,8-dicarboxylic acid 8-[((R)-1-phenyl-propyl)-amide] 6-{[(R)-1-(6-trifluoromethyl-pyridin-3-yl)-propyl]-amide}], the IC50 came to 0.53 µM.
As to `CC[C@@H](NC(=O)c1cc(C(=O)N2CC[C@H](F)C2)n2c1CCCC2)c1ccccc1` [16mk, 3-((S)-3-Fluoro-pyrrolidine-1-carbonyl)-5,6,7,8-tetrahydro-indolizine-1-carboxylic acid ((R)-1-phenyl-propyl)-amide], the IC50 was determined as 0.55 µM.
The same measure, in the same setting: the value for `CC[C@@H](NC(=O)c1cc(C(=O)NC(C)c2cnccn2)c2n1CCOC2)c1ccc(F)cc1F` (single isomer, unassigned) [16pk] was 0.19 µM; that for `CC[C@@H](NC(=O)c1cc(C(=O)N2CCC[C@@H]2c2ccccn2)n2c1COCC2)c1ccccc1` [16fk, 6-((R)-2-Pyridin-2-yl-pyrrolidine-1-carbonyl)-3,4-dihydro-1H-pyrrolo[2,1-c][1,4]oxazine-8-carboxylic acid ((R)-1-phenyl-propyl)-amide] was 0.29 µM.
As to `CCOC(=O)CNC(=O)c1cc(C(=O)N[C@H](CC)c2ccccc2)c2n1CCOC2` [16k, {[8-((R)-1-Phenyl-propylcarbamoyl)-3,4-dihydro-1H-pyrrolo[2,1-c][1,4]oxazine-6-carbonyl]-amino}-acetic acid ethyl ester], the IC50 worked out at 0.18 µM.
The same measure, in the same setting: as for `CC[C@@H](NC(=O)c1cc(C(=O)N2CCC[C@@H]2C(F)(F)F)n2c1COCC2)c1ccc(C(F)(F)F)nc1` [16o, 6-((R)-2-Trifluoromethyl-pyrrolidine-1-carbonyl)-3,4-dihydro-1H-pyrrolo[2,1-c][1,4]oxazine-8-carboxylic acid [(R)-1-(6-trifluoromethyl-pyridin-3-yl)-propyl]-amide], the figure is 0.41 µM; as for `CC[C@@H](NC(=O)c1cc(C(=O)N[C@H](C)c2ccc(F)cc2)n2c1COCC2)c1ncccn1` [16dz, 3,4-Dihydro-1H-pyrrolo[2,1-c][1,4]oxazine-6,8-dicarboxylic acid 6-{[(R)-1-(4-fluoro-phenyl)-ethyl]-amide} 8-[((R)-1-pyrimidin-2-yl-propyl)-amide]], 0.22 µM; as for `CC[C@@H](NC(=O)c1cc(C(=O)N2CCC[C@@H]2C)n2c1COCC2)c1ccc(OC)c(Cl)c1` [16ch, 6-((S)-2-Methyl-pyrrolidine-1-carbonyl)-3,4-dihydro-1H-pyrrolo[2,1-c][1,4]oxazine-8-carboxylic acid [(R)-1-(3-chloro-4-methoxy-phenyl)-propyl]-amide], 0.073 µM.
As to `CC[C@@H](NC(=O)c1cc(C(=O)N2CCC[C@@H]2C)n2c1COCC2)c1cccc(C#N)n1` [16ah, 6-((S)-2-Methyl-pyrrolidine-1-carbonyl)-3,4-dihydro-1H-pyrrolo[2,1-c][1,4]oxazine-8-carboxylic acid [(R)-1-(6-cyano-pyridin-2-yl)-propyl]-amide], the IC50 turned out to be 3.2 µM.
On the same count and under the same terms, the value for `CCOC(=O)[C@H](NC(=O)c1cc(C(=O)N[C@H](CC)c2ccccc2)c2n1CCOC2)c1ccccc1` [16hq, (R)-Phenyl-{[8-((R)-1-phenyl-propylcarbamoyl)-3,4-dihydro-1H-pyrrolo[2,1-c][1,4]oxazine-6-carbonyl]-amino}-acetic acid ethyl ester] was 0.32 µM; that for `CC[C@@H](NC(=O)c1cc(C(=O)N2CCCC2)n2c1COCC2)c1ccccc1C(F)(F)F` [16da, 6-(Pyrrolidine-1-carbonyl)-3,4-dihydro-1H-pyrrolo[2,1-c][1,4]oxazine-8-carboxylic acid [(R)-1-(2-trifluoromethyl-phenyl)-propyl]-amide] was 0.44 µM; that for `CC[C@@H](NC(=O)c1cc(C(=O)N2CCC[C@@H]2C)n2c1CCCC2)c1ccc(C#N)cc1` [16lx, 3-((S)-2-Methyl-pyrrolidine-1-carbonyl)-5,6,7,8-tetrahydro-indolizine-1-carboxylic acid [(R)-1-(4-cyano-phenyl)-propyl]-amide] was 0.2 µM.
With `CC[C@@H](NC(=O)c1cc(C(=O)NC(C)c2nnnn2C)n2c1COCC2)c1ccccc1` (stereo partly drawn) [16ro, 3,4-dihydro-1H-pyrrolo[2,1-c][1,4]oxazine-6,8-dicarboxylic acid 6-{[1-(1-methyl-1H-tetrazol-5-yl)-ethyl]-amide} 8-[((R)-1-phenyl-propyl)-amide]], the IC50 was found to be 2.8 µM.
Same read-out and setting: as for `CC[C@@H](NC(=O)c1cc(C(=O)N2CCC[C@@H]2C)n2c1COCC2)c1ncccc1Cl` [16pf], the figure is 0.099 µM.
The same measure, in the same setting: the value for `CC[C@@H](NC(=O)c1cc(C(=O)N2CCCC2C(C)(C)O)n2c1COCC2)c1ccccc1` (stereo partly drawn) [16ew, 6-[2-(1-Hydroxy-1-methyl-ethyl)-pyrrolidine-1-carbonyl]-3,4-dihydro-1H-pyrrolo[2,1-c][1,4]oxazine-8-carboxylic acid ((R)-1-phenyl-propyl)-amide] was 3.7 µM.
Take `O=C(NC(c1ccccc1)c1ccccc1)c1cc(C(=O)N2CCCC2)n2c1COCC2` [16di, 6-(Pyrrolidine-1-carbonyl)-3,4-dihydro-1H-pyrrolo[2,1-c][1,4]oxazine-8-carboxylic acid benzhydryl-amide]: the IC50 is 1.2 µM.
Consider `CCC[C@@H](NC(=O)c1cc(C(=O)N2CCC[C@@H]2C)n2c1COCC2)c1ccc(C(F)(F)F)nc1` [16bi, 6-((S)-2-Methyl-pyrrolidine-1-carbonyl)-3,4-dihydro-1H-pyrrolo[2,1-c][1,4]oxazine-8-carboxylic acid [(R)-1-(6-trifluoromethyl-pyridin-3-yl)-butyl]-amide], for which the IC50 came to 0.15 µM.
On the same count and under the same terms, the value for `CC[C@H](NC(=O)c1cc(C(=O)N[C@H](CC)c2ccccc2)c2n1CCOC2)c1cnc(OC)cn1` [16hz, 3,4-Dihydro-1H-pyrrolo[2,1-c][1,4]oxazine-6,8-dicarboxylic acid 6-{[(S)-1-(5-methoxy-pyrazin-2-yl)-propyl]-amide} 8-[((R)-1-phenyl-propyl)-amide]] was 0.13 µM.
With `CC[C@@H](NC(=O)c1cc(C(=O)N2CCC[C@@H]2C)n2c1COCC2)c1ccccn1` [16ph, 6-((S)-2-Methyl-pyrrolidine-1-carbonyl)-3,4-dihydro-1H-pyrrolo[2,1-c][1,4]oxazine-8-carboxylic acid ((R)-1-pyridin-2-yl-propyl)-amide], the half-inhibitory concentration (IC50) is 0.65 µM.
In the case of `CC[C@@H](NC(=O)c1cc(C(=O)N2CCC[C@@H]2c2ccc(OC)nc2)n2c1COCC2)c1ccccc1` [16fl, 6-[(R)-2-(6-Methoxy-pyridin-3-yl)-pyrrolidine-1-carbonyl]-3,4-dihydro-1H-pyrrolo[2,1-c][1,4]oxazine-8-carboxylic acid ((R)-1-phenyl-propyl)-amide], the IC50 is 0.24 µM.
On the same count and under the same terms, as for `CC[C@@H](NC(=O)c1cc(C(=O)N2CCC[C@@H]2C)c2n1CSC2)c1ccccc1` [16kx, 7-((S)-2-Methyl-pyrrolidine-1-carbonyl)-1H-pyrrolo[1,2-c]thiazole-5-carboxylic acid ((R)-1-phenyl-propyl)-amide], the figure is 0.1 µM; as for `CC[C@@H](NC(=O)c1cc(C(=O)N2CCC[C@@H]2C)n2c1COCC2)c1ccnc(C(F)(F)F)c1F` [16bu, 6-((S)-2-Methyl-pyrrolidine-1-carbonyl)-3,4-dihydro-1H-pyrrolo[2,1-c][1,4]oxazine-8-carboxylic acid [(R)-1-(3-fluoro-2-trifluoromethyl-pyridin-4-yl)-propyl]-amide], 0.21 µM.
With `CC[C@@H](NC(=O)c1cc(C(=O)N2CCC[C@@H]2C)n2c1COCC2)c1ccc(Cl)cc1` [16pg, 6-((S)-2-Methyl-pyrrolidine-1-carbonyl)-3,4-dihydro-1H-pyrrolo[2,1-c][1,4]oxazine-8-carboxylic acid [(R)-1-(4-chloro-phenyl)-propyl]-amide], the IC50 was determined as 0.19 µM.
